Assay results published in PubChem BioAssay (NCI).
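All cell lines were grown in 96-well plates and treated with compound for 48 hours. GI50 marks 50% less growth. TGI is the concentration that stops growth completely.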

How the values were obtained:
Test in all cases: NCI tumour cell line growth inhibition, 48 h
DU-145 prostate = system: DU-145 prostate
XF 498 CNS = system: XF 498 CNS
HOP-18 NSCLC = system: HOP-18 NSCLC
KM20L2 colon = system: KM20L2 colon
M19-MEL melanoma = system: M19-MEL melanoma
RXF-631 renal = system: RXF-631 renal
DMS 273 small cell lung = system: DMS 273 small cell lung
P388 leukemia = system: P388 leukemia
SN12K1 renal = system: SN12K1 renal
P388/ADR leukemia = system: P388/ADR leukemia

| Compound | TGI (DU-145 prostate) | TGI (HOP-18 NSCLC) | TGI (KM20L2 colon) | TGI (M19-MEL melanoma) | other results |
| --- | --- | --- | --- | --- | --- |
| Nc1cccc2cc(S(=O)(=O)Nc3ccc(C(=O)O)cc3)ccc12 | > 100 µM |  |  |  |  |
| CC[n+]1c(/C=C/c2ccc(N(CCCl)CCCl)cc2)ccc2cc(Br)ccc21 |  | 19.6 µM | 11.9 µM |  | TGI (XF 498 CNS): 1.18 µM; GI50 (M19-MEL melanoma): 134 µM |
| CCN(CC)CCSc1nc2c([N+](=O)[O-])cccc2[nH]1 |  |  |  | > 100 µM | TGI (RXF-631 renal): > 100 µM; TGI (XF 498 CNS): > 100 µM; TGI (DMS 273 small cell lung): > 100 µM |
| N=C1SCCS1 |  |  | > 100 µM | > 100 µM | TGI (XF 498 CNS): > 100 µM |
| O=C(Nc1ccc(-n2cc(-c3ccncc3)c(-c3ccc(O)c(Cl)c3)n2)cc1)c1ccc(Cl)c(Cl)c1 | > 32.5 µM |  |  |  | GI50 (DU-145 prostate): 3.91 µM |
| NC(N)=NCCCS(=O)(=O)Nc1ccc(Nc2c3ccccc3nc3cc([N+](=O)[O-])ccc23)cc1 | 25.2 µM | 58.7 µM | > 76.2 µM | 24.1 µM | TGI (RXF-631 renal): > 100 µM; TGI (XF 498 CNS): 27.9 µM; TGI (DMS 273 small cell lung): 37.2 µM |
| Cc1ccc(CCCC(=O)O)cc1C | > 100 µM |  |  |  |  |
| N=C(N)c1ccc(-c2ccc(-c3ccccc3)o2)cc1 | 7.93 µM |  |  |  | GI50 (DU-145 prostate): 2.72 µM |
| O=C(c1no[n+]([O-])c1C(=O)c1csc2ccccc12)c1csc2ccccc12 | 32.3 µM |  |  |  |  |
| CC(C)c1cccc(C(C)C)c1NC(=S)Nc1ccccc1 |  | > 100 µM | > 100 µM | > 100 µM | TGI (RXF-631 renal): > 100 µM; TGI (DMS 273 small cell lung): > 100 µM |
| N/C(=N/O)c1cn(C2OC(CO)C(O)C2O)c2ncnc(NO)c12 (stereo unspecified) | > 40 µM |  |  |  |  |
| CSc1nc(NC2OC(CO)C(O)C(O)C2O)c(N)c(=O)n1C (stereo unspecified) |  | > 100 µM | > 100 µM | > 100 µM | TGI (XF 498 CNS): > 100 µM; TGI (P388 leukemia): > 100 µM; TGI (SN12K1 renal): > 100 µM; TGI (P388/ADR leukemia): > 100 µM; TGI (DMS 273 small cell lung): > 100 µM |
| COc1cccc(/C=N/[N-]C(N)=O)c1[O-].[OH3+].[Zn+2] |  |  | > 100 µM |  |  |
| NC(=O)OCc1c(O)c2c(c(O)c1COC(N)=O)C(=O)C=CC2=O |  | > 100 µM | > 100 µM | 11.8 µM | TGI (DMS 273 small cell lung): > 100 µM |
| CCCCCCCCCCCCCCCc1ccc(C(=O)C[n+]2ccccc2)cc1 | 2.44 µM |  |  |  | GI50 (DU-145 prostate): 1.2 µM |
| COc1ccc(C2C(Cl)C(=O)N2NC(=O)c2ccc(NC(C)=O)cc2)cc1OC (stereo unspecified) |  | > 100 µM |  | > 100 µM |  |
| CC(C)=CCC/C(C)=C/CC/C(C)=C/C(O)c1ccccc1 (stereo unspecified) |  |  | 36 µM | 34.6 µM | TGI (RXF-631 renal): 34.1 µM |
